The values below come from ChEMBL document CHEMBL1145672, “Isolation and identification of trachyloban-19-oic and (-)-kaur-16-en-19-oic acids as antimicrobial agents from the prairie sunflower, Helianthus annuus” (1983).

Test [1] concerns Staphylococcus aureus. As to the kind of experiment: Antimicrobial activity against Staphylococcus aureus ATCC 13709 by agar-dilution streak method. Format: functional.
Test [2] concerns Mycolicibacterium smegmatis. Nature of the test: Antimicrobial activity against Mycobacterium smegmatis ATCC 607 by agar-dilution streak method. The class given is functional.
The subject of test [3] is Escherichia coli. Nature of the test: Antimicrobial activity against Escherichia coli ATCC 9637 at 100 ug/mL by agar-dilution streak method. The class given is functional, organism-based.
Test [4] relates to Salmonella enterica subsp. enterica serovar Gallinarum. Nature of the test: Antimicrobial activity against Salmonella gallinarum ATCC 9184 at 100 ug/mL by agar-dilution streak method. Format: functional, organism-based.
Test [5] relates to Klebsiella pneumoniae. Nature of the test: Antimicrobial activity against Klebsiella pneumoniae ATCC 10031 at 100 ug/mL by agar-dilution streak method. The class given is functional, organism-based.
The test system of a further test is Candida albicans. Nature of the test: Antimicrobial activity against Candida albicans ATCC 10231at 100 ug/mL by agar-dilution streak method. The class given is functional, organism-based.
The test system of test [6] is Staphylococcus aureus. As to the kind of experiment: Antimicrobial activity against Staphylococcus aureus ATCC 13709 at 100 ug/mL by agar-dilution streak method. The class given is functional, organism-based.
Test [7] deals with Escherichia coli. Nature of the test: Antimicrobial activity against Escherichia coli ATCC 9637 by agar-dilution streak method. The class given is functional.
The subject of test [8] is Salmonella enterica subsp. enterica serovar Gallinarum. Nature of the test: Antimicrobial activity against Salmonella gallinarum ATCC 9184 by agar-dilution streak method. Format: functional.
Test [9] deals with Klebsiella pneumoniae. As to the kind of experiment: Antimicrobial activity against Klebsiella pneumoniae ATCC 10031 by agar-dilution streak method. Format: functional.

The structures appear in SMILES notation. ≈ marks a conversion by molar mass, not a printed value. Calls of active or inactive are those of the source. No cut-off for these calls is given here.

By MIC is commonly meant the lowest concentration found to suppress growth. Consider `C=C1C[C@@]23CC[C@H]4[C@@](C)(CCC[C@]4(C)C(=O)O)[C@@H]2CCC1C3`, for which the MIC against Staphylococcus aureus [1] was found to be 12.5 µg/mL (≈ 41.3 µM); in test [2] it was 6.25 µg/mL (≈ 20.7 µM). Besides, the outcome (with Escherichia coli [3]; in test [4]; in the test with Klebsiella pneumoniae [5]; in the test with Candida albicans) was inactive.
`C[C@@]12C[C@@]34CC[C@H]5[C@@](C)(CCC[C@]5(C)C(=O)O)[C@@H]3C[C@H]1[C@H]2C4`: the MIC (against Staphylococcus aureus [1]; in test [2]) was 6.25 µg/mL (≈ 20.7 µM) in each case. The result (in the test with Escherichia coli [3]; in test [4]; with Klebsiella pneumoniae [5]; in the test on Candida albicans) was inactive.
`C=C1C[C@@]23CC[C@H]4[C@@](C)(CCC[C@@]4(C)C(=O)OC)[C@@H]2CC[C@@H]1C3` [KAURENOIC ACID METHYL ESTER] returned an MIC in test [2] of 25 µg/mL (≈ 79 µM). Moreover, the result (in the test with Staphylococcus aureus [6]; in the test with Escherichia coli [3]; in test [4]; with Klebsiella pneumoniae [5]; in the test on Candida albicans) was inactive.
`CN[C@@H]1[C@H](O[C@H]2[C@H](O[C@H]3[C@H](O)[C@@H](O)[C@H](N=C(N)N)[C@@H](O)[C@@H]3N=C(N)N)O[C@@H](C)[C@]2(O)C=O)O[C@@H](CO)[C@H](O)[C@H]1O` [STREPTOMYCIN]: the MIC was 3.1 µg/mL (≈ 5.33 µM) against Staphylococcus aureus [1]; 12.5 µg/mL (≈ 21.5 µM) against Escherichia coli [7]; 25 µg/mL (≈ 43 µM) in test [8]; 1.56 µg/mL (≈ 2.68 µM) against Klebsiella pneumoniae [9]; 0.78 µg/mL (≈ 1.34 µM) in test [2]. Further, the result in the test with Candida albicans was inactive.
